Patent US9670238B1 (priority 2015, dated 2017)
Entries after “also recorded” stand apart in the source; their conditions may differ. Read-outs that look alike come from different tables or passages of the source.

Assays:
[1] = target: T1, CDA (1-146aa), Human, His-tagged, Recombinant cytidine deaminase (Homo sapiens, UniProt P32320); format: in vitro ADME; conditions: PBS with cytidine deaminase, 37° C., about 30 minutes to 1 hour
T1 construct: CDA (1-146aa), Human, His-tagged; His tag; purchased ATGen
Protocol: 1 mg each of the 5′-dibenzyl phosphate derivatives of 5-azacytidines (formula (1)) was dissolved in 1 mL of acetonitrile. 10 μL of the solution was diluted with 1 mL of PBS. 10 μL of PBS solution of cytidine deaminase was added and stirred at 37° C. for about 30 minutes to 1 hour. 1 mL of acetonitrile was added to the reaction solution and separated by centrifugation. The supernatant obtained was analyzed with HPLC.
Cytidine deaminase: CDA (1-146aa), Human, His-tagged, Recombinant cytidine deaminase (ATGen)
Column: CAPCELL PAK ADME (4.6 mm×150 mm, particle size:3 μm)
Elution: A=Purified water containing 10 mM ammonium formate • B=Acetonitrile • Gradient mode: A:B=99:1→5:95/30 minutes

[2] = test system: myeloma cells (RPMI-8226); assay: Anti-myeloma activity, inhibition of cell proliferation; format: cell-based; conditions: RPMI-8226, 72 hours incubation, cell count
Protocol: To the solutions containing about 4000 myeloma cells (RPMI-8226), solutions of 5′-dibenzyl phosphate derivatives of 5-azacytidines at concentrations of 0.0033 μM, 0.01 μM, 0.033 μM, 0.1 μM, 0.33 μM, 1 μM, 3.3 μM, 10 μM, 33 μM, or 100 μM were added. After incubation in RPMI-1640 (containing 10% FBS and 1% Penn-strep) for 72 hours, cell count was determined and the values of IC50 were calculated as inhibitory effect against cell proliferation (referring to Journal of Clinical Pathology, 2006, 59, 947-951).

[3] = Non-enzymatic hydrolysis reactivity in PBS solution at 37° C. (HPLC); format: physicochemical; conditions: for 5-Azacytidine or 2′-deoxy-5-azacytidine (%) After 4 hours / 5-Azacytidine or 2′-deoxy-5-azacytidine (%) After 8 hours / 5-Azacytidine or 2′-deoxy-5-azacytidine (%) After 24 hours: PBS pH7.4 to 7.5, 37° C.; for Hydrolysis in PBS solution to the corresponding 5-azacytidines (in words): 37° C., up to 24 hours
Protocol: About 1 mg each of the obtained 5′-dibenzyl phosphate derivatives of 5-azacytidines (referring to formula (1)), such as O,O′-dibenzyl 5-azacytidylate (compound A) or O,O′-dibenzyl 2′-deoxy-5-azacytidylate (compound B) was dissolved in 1 mL of acetonitrile. 5 μL of the solution was added to 100 μL of PBS solution (pH7.4 to 7.5) and the solution was stirred at 37° C. The reactions were traced by HPLC analysis.
HPLC conditions were same as those in test example 1.

[4] = Partition coefficient (n-octanol/PBS); format: physicochemical
Source text: The separation systems using a silica gel column, separation yields, data obtained from instrumental analysis and partition coefficients of 5′-dibenzyl (or diphenethyl, diphenyl) phosphate derivatives of 5-azacytidines (compounds A to H) which were synthesized according to the methods A and B are shown as below.

T1 sequence (P32320 whole entry): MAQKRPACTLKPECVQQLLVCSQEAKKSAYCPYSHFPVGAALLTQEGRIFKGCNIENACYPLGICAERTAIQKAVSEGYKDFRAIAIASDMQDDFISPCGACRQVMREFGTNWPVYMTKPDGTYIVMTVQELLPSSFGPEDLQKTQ

Molecule	Change in HPLC pattern (peak of the starting material) [1]	Change in HPLC pattern (peak of the starting material) ([1]; listed as 2′-deoxy-5-azacytidine)	IC50 ([2]; Homo sapiens)	IC50 [2]	5-Azacytidine or 2′-deoxy-5-azacytidine (%) After 4 hours [3]	5-Azacytidine or 2′-deoxy-5-azacytidine (%) After 8 hours [3]	5-Azacytidine or 2′-deoxy-5-azacytidine (%) After 24 hours [3]	Hydrolysis in PBS solution to the corresponding 5-azacytidines (in words) [3]	Partition coefficient, Log P [4]
Nc1ncn([C@H]2C[C@H](O)[C@@H](CO)O2)c(=O)n1 [2′-Deoxy-5-azacytidine, 2′-deoxy-5-azacytidine, reference compound]	The peak of the starting material disappeared	disappeared completely	0.03 µM						
O,O′-di(4-fluoro)benzyl 2′-deoxy-5-azacytidylate [compound D]	Almost no change in the peak of the starting			0.78 µM					
O,O′-dibenzyl 2′-deoxy-5-azacytidylate [compound B]	Almost no change in the peak of the starting				8%	8%	45%	gradually hydrolyzed	
O,O′-dibenzyl 5-azacytidylate [compound A]	Almost no change in the peak of the starting			1.71 µM	18%	35%	67%	gradually hydrolyzed	0.83
O,O′-diphenethyl 5-azacytidylate [compound F]	Almost no change in the peak of the starting							almost no change was confirmed even after 24 hours; also recorded: could not be observed	
O,O′-diphenyl 2′-deoxy-5-azacytidylate [compound H]	extremely stable								
O,O′-diphenyl 5-azacytidylate [compound G]	extremely stable			> 100 µM				almost no change was confirmed even after 24 hours; also recorded: could not be observed	
